According to the supplement of paper PMC10307832:

Tests used:
Assay in all cases: relative viability (nuclei count vs DMSO), 5 days (fraction); higher = more cells survive
[1] = compound: CN[C@@H]1C[C@H]2O[C@@](C)([C@@H]1OC)n1c3ccccc3c3c4c(c5c6ccccc6n2c5c31)C(=O)NC4 [Staurosporine] + CS(=O)(=O)N1CCN(Cc2cc3nc(-c4cccc5[nH]ncc45)nc(N4CCOCC4)c3s2)CC1 [Pictilisib] (partner 1 µM)
Summary of the method: (§1)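 The day after seeding in 1536-well plates, lung cancer cell lines were treated by pin tool with a single drug, or with a fixed anchor-drug dose together with five library-drug doses (not always all listed) in √10 steps. After 5 days, a combined fix-and-stain solution (final 0.05% Triton X-100, 1% formaldehyde, 1 ug/ml Hoechst) was added. Nuclei counted on 4× images gave relative viability as treated counts over vehicle counts, reported as the median of duplicate plates.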

[2] = compound: O=c1[nH]cc(F)c(=O)[nH]1 [5-Fluorouracil] + CC(=O)Nc1cccc(-n2c(=O)n(C3CC3)c(=O)c3c(Nc4ccc(I)cc4F)n(C)c(=O)c(C)c32)c1 [Trametinib] (partner 0.02 µM)
Summary of the method: as §1

[3] = compound: CC1=C(CC(=O)O)c2cc(F)ccc2/C1=C\c1ccc([S+](C)[O-])cc1 [Sulindac] + O=C(c1cc(Cc2n[nH]c(=O)c3ccccc23)ccc1F)N1CCN(C(=O)C2CC2)CC1 [Olaparib] (partner 8 µM)
Summary of the method: as §1

[4] = compound: CN[C@@H]1C[C@H]2O[C@@](C)([C@@H]1OC)n1c3ccccc3c3c4c(c5c6ccccc6n2c5c31)C(=O)NC4 [Staurosporine] + Nc1nc2[nH]cc(CCc3ccc(C(=O)N[C@@H](CCC(=O)O)C(=O)O)cc3)c2c(=O)[nH]1 [Pemetrexed] (partner 0.2 µM)
Summary of the method: as §1

| Cell Line | relative viability ([1]; first compound 0.005 µM) | relative viability ([1]; first compound 0.01581 µM) | relative viability ([1]; first compound 0.05 µM) | relative viability ([1]; first compound 0.1581 µM) | relative viability ([1]; first compound 0.5 µM) | relative viability ([2]; first compound 0.02 µM) | relative viability ([2]; first compound 0.2 µM) | relative viability ([2]; first compound 0.6325 µM) | relative viability ([2]; first compound 2 µM) | relative viability ([3]; first compound 0.08 µM) | relative viability ([3]; first compound 0.253 µM) | relative viability ([3]; first compound 0.8 µM) | relative viability ([3]; first compound 2.53 µM) | relative viability ([3]; first compound 8 µM) | relative viability ([4]; first compound 0.005 µM) | relative viability ([4]; first compound 0.01581 µM) | relative viability ([4]; first compound 0.05 µM) | relative viability ([4]; first compound 0.1581 µM) | relative viability ([4]; first compound 0.5 µM) |
| --- | --- | --- | --- | --- | --- | --- | --- | --- | --- | --- | --- | --- | --- | --- | --- | --- | --- | --- | --- |
| LU99A | 0.187 | 0.158 | 0.186 | 0.122 | 0.114 | 0.655 | 0.559 | 0.374 | 0.268 | 0.294 | 0.231 | 0.259 | 0.241 | 0.311 | 0.178 | 0.168 | 0.16 | 0.114 | 0.119 |
| NCI-H1703 | 0.223 | 0.175 | 0.191 | 0.163 | 0.114 | – | – | – | – | 0.39 | 0.526 | 0.404 | 0.529 | 0.554 | – | – | – | – | – |
| NCI-H2170 | 0.302 | 0.165 | 0.232 | 0.151 | 0.113 | 0.976 | 0.78 | 0.478 | 0.312 | 0.658 | 0.576 | 0.493 | 0.591 | 0.626 | 0.247 | – | 0.243 | 0.101 | 0.173 |
| NCI-H2342 | – | – | – | – | – | 0.932 | 0.762 | 0.843 | 0.662 | 0.353 | 0.368 | 0.414 | 0.415 | 0.451 | 0.773 | 0.746 | 0.433 | 0.315 | 0.319 |
| LCLC-97TM1 | 0.197 | 0.0972 | 0.152 | 0.119 | 0.153 | 0.181 | 0.203 | 0.209 | 0.188 | 0.481 | 0.531 | 0.473 | 0.308 | 0.606 | 0.185 | 0.111 | 0.186 | 0.149 | 0.117 |
| NCI-H1299 | 0.121 | 0.119 | 0.109 | 0.0457 | 0.0455 | – | – | – | – | 0.98 | 1.04 | 0.889 | 0.962 | 1.03 | – | – | – | – | – |
| NCI-H322M | 0.683 | 0.384 | 0.312 | 0.309 | 0.252 | 0.532 | 0.664 | 0.463 | 0.456 | 0.674 | 0.772 | 0.742 | 0.837 | 0.87 | 0.608 | 0.501 | 0.451 | 0.423 | 0.388 |
| NCI-H1395 | 0.535 | 0.315 | 0.475 | 0.366 | 0.394 | 1.03 | 0.987 | 1.12 | 1.11 | 0.43 | 0.424 | 0.467 | 0.45 | 0.483 | 0.789 | 0.341 | 0.316 | 0.31 | 0.255 |
| NCI-H2023 | 0.134 | 0.106 | 0.11 | 0.0886 | 0.0609 | 0.472 | 0.21 | 0.133 | 0.0877 | 0.486 | 0.511 | – | 0.441 | 0.554 | 0.183 | 0.154 | 0.0933 | 0.0756 | 0.0692 |
| NCI-H1651 | 0.438 | 0.334 | 0.239 | 0.097 | 0.089 | 0.879 | 0.684 | 0.325 | 0.267 | 0.17 | 0.189 | 0.162 | 0.177 | 0.169 | 0.613 | 0.426 | 0.274 | 0.156 | 0.159 |
| Calu-6 | 0.584 | 0.298 | 0.222 | 0.0573 | 0.0441 | – | – | – | – | 0.618 | 0.624 | 0.449 | 0.531 | 0.711 | – | – | – | – | – |
| NCI-H1648 | – | – | – | – | – | 0.467 | 0.405 | 0.466 | 0.306 | 1.38 | 0.827 | – | 0.997 | 0.695 | 0.582 | 0.321 | 0.344 | 0.325 | 0.42 |
| NCI-H727 | 0.486 | 0.293 | 0.2 | 0.223 | 0.12 | 0.361 | 0.384 | 0.363 | 0.389 | 0.588 | 0.519 | 0.648 | 0.769 | 0.707 | – | – | – | – | – |
| NCI-H522 | – | – | – | – | – | 0.76 | 0.681 | 0.724 | 0.638 | 0.694 | 0.735 | 0.558 | 0.633 | 0.61 | 1.08 | 0.7 | 0.847 | 0.742 | 0.579 |
| ABC-1 | 0.256 | 0.164 | 0.112 | 0.0906 | 0.0638 | – | – | – | – | 1.1 | 0.611 | 0.769 | 0.591 | 0.601 | – | – | – | – | – |
| SW 900 | – | – | – | – | – | 0.747 | 0.735 | 0.59 | 0.558 | 0.968 | 0.965 | – | – | 1.06 | 0.404 | 0.356 | 0.296 | 0.161 | 0.115 |
| IA-LM | 0.266 | 0.323 | 0.256 | 0.0809 | 0.0459 | – | – | – | – | 0.932 | 0.925 | – | 0.953 | 0.881 | – | – | – | – | – |
| A549 | 0.259 | 0.0929 | 0.0679 | 0.061 | 0.0434 | – | – | – | – | 0.468 | 0.303 | – | 0.331 | 0.352 | – | – | – | – | – |
